The values that follow come from US20250282790A1 (Temple University-Of The Commonwealth System of Higher …, priority 2016, published 2025).

The test deals with 5HT7 receptors (Homo sapiens (Human), UniProt P34969). Briefly: Radiolabel Binding Studies for Serotonin 5-HT7 Receptors, Method 2 ([3H]-5HT competition; Ki and percent inhibition at 10 μM). The conditions noted are these: radioligand competition binding. On the procedure:
Radiolabel Binding Studies for Serotonin 5-HT7 Receptors, Method 2:
A solution of the compound of the disclosure to be tested is prepared as a 1-mg/ml stock in Assay Buffer or DMSO according to its solubility. A similar stock of the reference compound chlorpromazine is also prepared as a positive control. Eleven dilutions (5×assay concentration) of the compound of the disclosure and chlorpromazine are prepared in the Assay Buffer by serial dilution to yield final corresponding assay concentrations ranging from 10 pM to 10 μM.
A stock concentration of 5 nM [^3H]-5-Hydroxytryptamine ([^3H]-5HT) is prepared in 50 mM Tris-HCl, 10 mM MgCl2, 1 mM EDTA, pH 7.4 (Assay Buffer). Aliquots (50 μl) of radioligand are dispensed into the wells of a 96-well plate containing 100 μl of Assay Buffer. Duplicate 50-μl aliquots of the compound of the disclosure test and chlorpromazine positive control reference compound serial dilutions are added.
Membrane fractions of cells expressing recombinant 5HT7 receptors (50 L) are dispensed into each well. The membranes are prepared from stably transfected cell lines expressing 5HT7 receptors cultured on 10-cm plates by harvesting PBS-rinsed monolayers, resuspending and lysing in chilled, hypotonic 50 mM Tris-HCl, pH 7.4, centrifuging at 20,000×g, decanting the supernatant and storing at −80° C.; the membrane preparations are resuspended in 3 ml of chilled Assay Buffer and homogenized by several passages through a 26 gauge needle before using in the assay.
The 250-μl reactions are incubated at room temperature for 1.5 hours, then harvested by rapid filtration onto 0.3% polyethyleneimine-treated, 96-well filter mats using a 96-well Filtermate harvester. Four rapid 500-μl washes are performed with chilled Assay Buffer to reduce non-specific binding. The filter mats are dried, then scintillant is added to the filters and the radioactivity retained on the filters is counted in a Microbeta scintillation counter.
Raw data (dpm) representing total radioligand binding (i.e., specific+non-specific binding) are plotted as a function of the logarithm of the molar concentration of the competitor (i.e., test or reference compound). Non-linear regression of the normalized (i.e., percent radioligand binding compared to that observed in the absence of test or reference compound) raw data is performed in Prism 4.0 (GraphPad Software) using the built-in three parameter logistic model describing ligand competition binding to radioligand-labeled sites:
where bottom equals the residual radioligand binding measured in the presence of 10 μM reference compound (i.e., non-specific binding) and top equals the total radioligand binding observed in the absence of competitor. The log IC50 (i.e., the log of the ligand concentration that reduces radioligand binding by 50%) is thus estimated from the data and used to obtain the Ki by applying the Cheng-Prusoff approximation:
where [ligand] equals the assay radioligand concentration and KD equals the affinity constant of the radioligand for the target receptor.
Compounds of the disclosure are also screened at a single concentration of 10 μM using the same method described for the Radiolabel Binding Studies for Serotonin 5HT7 receptors to determine the percent inhibition of [^3H]-5HT binding.

The structures appear in SMILES notation.

5HT7 receptors, sequence (P34969 whole entry): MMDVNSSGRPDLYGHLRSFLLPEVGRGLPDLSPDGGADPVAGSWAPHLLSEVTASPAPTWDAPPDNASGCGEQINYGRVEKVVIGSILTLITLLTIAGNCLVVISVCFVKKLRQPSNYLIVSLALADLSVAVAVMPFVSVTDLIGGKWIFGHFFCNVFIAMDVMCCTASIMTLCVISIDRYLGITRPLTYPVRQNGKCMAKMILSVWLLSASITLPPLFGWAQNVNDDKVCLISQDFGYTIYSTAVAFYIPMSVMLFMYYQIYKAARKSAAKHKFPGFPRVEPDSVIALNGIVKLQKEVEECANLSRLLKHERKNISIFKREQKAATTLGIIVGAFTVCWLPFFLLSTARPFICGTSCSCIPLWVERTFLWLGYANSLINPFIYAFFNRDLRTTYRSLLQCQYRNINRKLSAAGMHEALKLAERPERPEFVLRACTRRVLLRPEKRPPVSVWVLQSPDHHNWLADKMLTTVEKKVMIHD

For `COC(=O)N1CCC2(CC1)CC(CCN1CCN(c3ccc(C)cc3)CC1)OC2=O` (centres unmarked) [Entry 3], the IC50 worked out at 81 nM.
Molecule `Cc1nc2cccc(N3CCN(CCC4CC5(CCN(S(C)(=O)=O)CC5)C(=O)O4)CC3)c2[nH]1` (centres unmarked) [Entry 8] displayed an IC50 of 46 nM.
The same measure for `CS(=O)(=O)N1CCC2(CC1)CC(CCN1CCN(c3ccc(O)cc3N3CCOCC3)CC1)OC2=O` (centres unmarked) [Example 21]: 75 nM; for `CS(=O)(=O)N1CCC2(CC1)CC(CCN1CCN(c3ccc(C#N)cc3N3CCOCC3)CC1)OC2=O` (centres unmarked) [Entry 19]: 461 nM.
For `Cc1ccc(N2CCN(CCC3CC4(CCNCC4)C(=O)O3)CC2)cc1` (centres unmarked) [Entry 2], the IC50 worked out at 149 nM.
The molecule `Cc1ccc(N2CCN(CCC3CC4(CCN(S(C)(=O)=O)CC4)C(=O)O3)CC2)cc1` (centres unmarked) [Entry 6] gave a 50% inhibitory concentration (IC50) of 93 nM.
The same measure for `Cc1ccc(N2CCN(CCC3CC4(CCN(S(C)(=O)=O)CC4)C(=O)O3)CC2)c(N2CCOCC2)c1` (centres unmarked) [Example 20]: 67 nM; for `CS(=O)(=O)N1CCC2(CC1)CC(CCN1CCN(c3ccc(O)cc3)CC1)OC2=O` (centres unmarked) [Example 22]: 202 nM; for `Cc1ccc(N2CCN(CCC3CC4(CCN(S(=O)(=O)C5CCOCC5)CC4)C(=O)O3)CC2)cc1` (centres unmarked) [Example 13]: 96 nM.
Molecule `CS(=O)(=O)N1CCC2(CC1)CC(CCN1CCN(c3ccc(Cl)cc3)CC1)OC2=O` (centres unmarked) [Entry 9] showed an IC50 of 303 nM.
The same measure for `Cc1ccc(N2CCN(CCC3CC4(CCN(S(=O)(=O)c5ccccc5)CC4)C(=O)O3)CC2)cc1` (centres unmarked) [Entry 10]: 64 nM.
As for `COc1ccc(S(=O)(=O)N2CCC3(CC2)CC(CCN2CCN(c4ccc(C)cc4)CC2)OC3=O)cc1` (centres unmarked) [Entry 11], the figure is 77 nM.
The same measure for `CS(=O)(=O)N1CCC2(CC1)CC(CCN1CCN(c3ccccc3N3CCOCC3)CC1)OC2=O` (centres unmarked) [Entry 7]: 34 nM.
Turning to `Cc1ccc(N2CCN(CCC3CC4(CCN(Cc5ccccc5)CC4)C(=O)O3)CC2)cc1` (centres unmarked) [Entry 1], the IC50 is 18 nM.
Take `CC(=O)N1CCC2(CC1)CC(CCN1CCN(c3ccc(C)cc3)CC1)OC2=O` (centres unmarked) [Entry 4]: the IC50 amounted to 122 nM.
As for `Cc1ccc(N2CCN(CCC3CC4(CCN(S(=O)(=O)c5ccc(Cl)cc5)CC4)C(=O)O3)CC2)cc1` (centres unmarked) [Example 12], the figure is 108 nM; as for `CNC(=O)N1CCC2(CC1)CC(CCN1CCN(c3ccc(C)cc3)CC1)OC2=O` (centres unmarked) [Entry 5], 102 nM.
